Data from US20250199015A1, “CYCLIN-DEPENDENT KINASE 2 INHIBITORS FOR MEDICAL TREATMENT” (INCYCLIX BIO, LLC, priority 2022, published 2025).
Marks after values point to notes of the source that are not given here.

Experiments:
[1] = Salt screen storage at 40° C./75% RH, XRPD form; assay type: physicochemical; settings: ca. 24 hours
Description: XRPD analysis was carried out on any isolated solids or gums as described in Example 10 below. The XRPD plate, and the isolated solids, were dried at 40° C. for ca. 24 hours and re-analyzed by XRPD. The XRPD plate was further dried at 40° C./75% RH for ca. 24 hours and XRPD analysis was repeated.
After three days, observations were recorded and solids were isolated by centrifugation. The wet solids were analyzed by XRPD. Solids were dried at 40° C. under vacuum for 72 hours and re-analyzed by XRPD. Solids were dried at 40° C./75% RH for 18 hours and re-analyzed by XRPD.

[2] = system: T47D parental and therapy-resistant cells; test: Cell cycle by BrdU flow cytometry in therapy-resistant cells; assay type: cell-based, human
Description: The therapy resistant cells were previously incubated with abemaciclib, fulvestrant, and/or palbociclib for prolonged periods to the point of developing drug resistance. Cells were plated in Corning 6 well tissue culture treated plates. Cells were treated for 7 days. Media was spiked with 10 μM BrdU prior to collection. Cells were washed in PBS, trypsinized, collected and centrifuged at 300 RCF for 5 mins. Cells were resuspended in cell culture media and transferred into a 96 well V-bottom plate with roughly 300,000 cells per well. Cells were then stained using the Near-IR Fixable Viability Stain (Invitrogen Cat. L34976) for 20 mins at room temperature, protected from light. Cells were fixed and permeabilized using eBioscience FoxP3/Transcription Factor Staining Buffer Set (Cat. 00-5523-00). DNA was denatured using 2N HCl+0.5% (v/v) Triton X-100 for 30 mins room temperature, agitating every 5-10 mins. The acid was neutralized using 0.1M Na2B4O7·10H2O (pH 8.5) followed by 0.5% BSA in PBS. Cells were then stained with BrdU antibody (Clone 3D4, BioLegend Cat. 364118) for 1 hour at room temperature. Prior to acquisition on the BD A3 Symphony, DNA was stained for 30 minutes using FxCycle Violet ReadyFlow Reagent.
Cell staining was then conducted to monitor cellular proliferation and perform cell cycle analysis of these therapy-resistant cells. […] Similarly, abemaciclib- and fulvestrant-resistant (LYFR) cells administered abemaciclib and fulvestrant were not substantially arrested in the G1 phase (FIG. 147H).

H526 cells = test: CellTiter Glo cell proliferation assay (single agent and chemotherapy combination); assay type: cell-based, human; settings: 6 days
Description: (§1) Plates returned to incubator for six additional days. On day six post dosing, plates were removed and treated with CellTiter Glo reagent following manufacturer's specifications. Plates incubated 45 minutes at room temperature and run on a Biotek luminometer with 1 sec/well detection. Results were converted to Microsoft Excel and transferred to GraphPad Prism for analysis.
Cells were plated at 250 cells per well in white wall/clear bottom plates and incubated overnight. […] Plates returned to the incubator for six additional days. On day six post dosing, plates were removed and treated with CellTiter Glo reagent following manufacturer's specifications. Plates incubated 45 minutes at room temperature and run on a Biotek luminometer with 1 sec/well detection. Results were converted to Microsoft Excel and transferred to GraphPad Prism for analysis.
(§2) Dose curves ranged from 300 pM to 10 μM in triplicate and treatments lasted for 6 days. Plates were removed from incubator at each specified timepoint and treated with CellTiter-Glo (Promega, Inc) following manufacturer specifications. Plates were then read on CLARIOstar luminometer with 1 sec/well integration.
as §2, with “integration. Results were converted to Microsoft Excel and transferred to GraphPad Prism for Analysis.” for “integration.”

H69 (NCIH69) cells = test: as above; assay type: cell-based, human; settings: 6 days
Description: as §1, §2
as §2, with “integration. Results were converted to Microsoft Excel and transferred to GraphPad Prism for Analysis.” for “integration.”

SHP77 cells = test: as above; assay type: cell-based, human; settings: 6 days
Description: as §1, §2
as §2, with “integration. Results were converted to Microsoft Excel and transferred to GraphPad Prism for Analysis.” for “integration.”

[3] = system: T47D human breast carcinoma cells; test: Crystal violet colony assay; assay type: cell-based; settings: 300 nM, weeks 2-8
Description: (§3) The T47D human breast carcinoma cell line was grown in RPMI-1640/1× Glutamax/1× Insulin/10% fetal bovine serum and was plated at 10,000 cells/well in Corning 6-well tissue culture treated plates. Cells were incubated at 37° C. for 24 hours prior to addition of treatment. […] Plates were collected at week 2 and 3, at week 3, 2 plates with only palbociclib were switched to combination treatment. The remaining plates were collected at weeks 5 and 8. Collection was performed by washing wells with PBS before incubating 5 minutes with 0.1% crystal violet/20% methanol. Dye was removed and wells washed 4 times with PBS before being scanned at 1200 dpi. Image J was used to count the % area and colony size for each well (FIG. 8F-I). GraphPad Prism was used for analysis. Cells treated with DMSO control retained large colonies that inhabited the majority of the well surface area from week 3 beyond (FIG. 8F).
as §3, with “6 well tissue culture treated plates. The BT474 human breast carcinoma cell line was grown in DMEM/1× Glutamax/1× Insulin/10% fetal bovine serum and was plated at 25,000 cells/well in Corning 6 well” for “6-well”, “CDK4/6i” for “palbociclib”, “well. Graph pad” for “well (FIG. 8F-I). GraphPad Prism”, “analysis.” for “analysis. Cells treated with DMSO control retained large colonies that inhabited the majority of the well surface area from week 3 beyond (FIG. 8F).”
The T47D human breast carcinoma cell line was grown in RPMI-1640/1× Glutamax/1× Insulin/10% fetal bovine serum and was plated at 10,000 cells/well in Corning 6 well tissue culture treated plates. Cells were incubated at 37° C. for 24 hours prior to addition of treatment. […] Plates were collected at weeks 2 and 3. Collection was performed by washing wells with PBS before incubating 5 minutes with 0.1% crystal violet/20% methanol. Dye was removed and wells washed 4 times with PBS before being scanned at 1200 dpi. Image J was used to count the percent area and colony size for each well and Graph pad was used for analysis.

SMILES: Br.NS(=O)(=O)c1ccc(Nc2ncc3cc4n(c3n2)C2(CCCCC2)C(=O)NN4)cc1 [HBr Pattern 1]
- XRPD form after storage at 40° C./75% RH [1]: loss of crystallinity

SMILES: Cl.NS(=O)(=O)c1ccc(Nc2ncc3cc4n(c3n2)C2(CCCCC2)C(=O)NN4)cc1 [HCl Pattern 2]
- XRPD form after storage at 40° C./75% RH [1]: No form changes were observed

SMILES: CCN1CCN(Cc2ccc(Nc3ncc(F)c(-c4cc(F)c5nc(C)n(C(C)C)c5c4)n3)nc2)CC1 [abemaciclib, reference compound]
- cell cycle arrest ([2]; abemaciclib-resistant (LYR) cells): substantially less frequently in the G1 phase
- cell cycle arrest ([2]; parental (PAR) cells): arrested parental (PAR) cell lines in the G1 phase

SMILES: NS(=O)(=O)c1ccc(Nc2ncc3cc4n(c3n2)C2(CCCCC2)C(=O)NN4)cc1.O=S(=O)(O)c1ccccc1 [besylate Pattern 3]
- XRPD form after storage at 40° C./75% RH [1]: loss in crystallinity

SMILES: CC[C@@]1(O)C(=O)OCc2c1cc1n(c2=O)Cc2cc3ccccc3nc2-1 [camptothecin, (S)-4-ethyl-4-hydroxy-1H-pyrano[3′,4′:6,7]indolizino[1,2-b]quinoline-3,14-(4H, 12H)-dione, reference compound]
- cellular proliferation, chemotherapeutic alone compared with Compound I alone (H526 cells): lower cellular proliferation IC50 values
- cellular proliferation, chemotherapeutic alone compared with Compound I alone (H69 (NCIH69) cells): lower cellular proliferation IC50 values
- cellular proliferation, chemotherapeutic alone compared with Compound I alone (SHP77 cells): lower cellular proliferation IC50 values

SMILES: NS(=O)(=O)c1ccc(Nc2ncc3cc4n(c3n2)C2(CCCCC2)C(=O)NN4)cc1.O=C(O)CC(O)(CC(=O)O)C(=O)O [citrate Pattern 1]
- XRPD form after storage at 40° C./75% RH ([1]; listed as Citric Acid Salt Pattern 1): poorly crystalline material

SMILES: NS(=O)(=O)c1ccc(Nc2ncc3cc4n(c3n2)C2(CCCCC2)C(=O)NN4)cc1.O=C(O)CC(O)(CC(=O)O)C(=O)O [citrate Pattern 2]
- XRPD form after storage at 40° C./75% RH ([1]; listed as Citric Acid Salt Pattern 2): new poorly crystalline pattern designated Pattern 4

SMILES: COc1cccc2c1C(=O)c1c(O)c3c(c(O)c1C2=O)C[C@@](O)(C(=O)CO)C[C@@H]3O[C@H]1C[C@H](N)[C@H](O)[C@H](C)O1 [doxorubicin, reference compound]
- cellular proliferation, chemotherapeutic alone compared with Compound I alone (H526 cells): better inhibition
- cellular proliferation, chemotherapeutic alone compared with Compound I alone (H69 (NCIH69) cells): better inhibition
- cellular proliferation, chemotherapeutic alone compared with Compound I alone (SHP77 cells): better inhibition

SMILES: NS(=O)(=O)c1ccc(Nc2ncc3cc4n(c3n2)C2(CCCCC2)C(=O)NN4)cc1.O=C(O)/C=C\C(=O)O [maleate Pattern 2]
- XRPD form after storage at 40° C./75% RH ([1]; listed as Maleic Acid Salt Pattern 2): loss of crystallinity

SMILES: NS(=O)(=O)c1ccc(Nc2ncc3cc4n(c3n2)C2(CCCCC2)C(=O)NN4)cc1.O=C(O)/C=C\C(=O)O [maleate Pattern 4]
- XRPD form after storage at 40° C./75% RH ([1]; listed as Maleic Acid Salt Pattern 4): converted to Pattern 6

SMILES: NS(=O)(=O)c1ccc(Nc2ncc3cc4n(c3n2)C2(CCCCC2)C(=O)NN4)cc1.O=C(O)/C=C\C(=O)O [maleate Pattern 5]
- XRPD form after storage at 40° C./75% RH ([1]; listed as Maleic Acid Salt Pattern 5): converted to Pattern 1*

SMILES: CS(=O)(=O)O.NS(=O)(=O)c1ccc(Nc2ncc3cc4n(c3n2)C2(CCCCC2)C(=O)NN4)cc1 [mesylate Pattern 2]
- XRPD form after storage at 40° C./75% RH [1]: converted to Pattern 1

SMILES: CS(=O)(=O)O.NS(=O)(=O)c1ccc(Nc2ncc3cc4n(c3n2)C2(CCCCC2)C(=O)NN4)cc1 [mesylate Pattern 3]
- XRPD form after storage at 40° C./75% RH [1]: converted to Pattern 1

SMILES: CS(=O)(=O)O.NS(=O)(=O)c1ccc(Nc2ncc3cc4n(c3n2)C2(CCCCC2)C(=O)NN4)cc1 [mesylate Pattern 4]
- XRPD form after storage at 40° C./75% RH [1]: converted to Pattern 1

SMILES: CC(=O)c1c(C)c2cnc(Nc3ccc(N4CCNCC4)cn3)nc2n(C2CCCC2)c1=O [palbociclib, reference compound]
- colony size and percent plate area [3]: cells expanded to cover a large percentage of the plate area

SMILES: NS(=O)(=O)c1ccc(Nc2ncc3cc4n(c3n2)C2(CCCCC2)C(=O)NN4)cc1.O=P(O)(O)O [phosphate Pattern 6]
- XRPD form after storage at 40° C./75% RH [1]: formation of amorphous material
- XRPD form after storage at 40° C./75% RH ([1]; listed as Phosphoric Acid Salt Pattern 6): amorphous material
